Like-named read-outs stand apart in the source and are kept apart here.
Columns and labels:
[1] = system: bFGF-sensitive (M059K, RT-112, SW780) and bFGF-insensitive (SKOV3, AGS and HCT116) cell lines; assay: SIA, collagen I invasion in panel of human cancer cell models; assay type: cell-based; conditions: 10 µM
Procedure: 1000—2500 cells/well in 100 μl were seeded in 96 well Corning® Spheroid microplate (CLS4520, Sigma-Aldrich) or in cell-repellent 96 well microplate (650,790, Greiner Bio-one). SIA and analysis was performed as described before. In brief: After spheroid formation (24 – 72 h after seeding), 70 µl medium was removed and replaced with the collagen mixture (2.5 mg/ml Pure Col Collagen I (Advanced Biomatrix)), DMEM 1x (from 10 × stock, Sigma, D2429) and 0.4% Sodium bicarbonate (Sigma, S8761)), resulting in a final collagen concentration of 1.75 mg/ml. Embedded spheroids were stimulated with bFGF (100 ng/ml if not otherwise stated), HGF (30 ng /ml) or EGF (20 ng/ml) and distance of invaded cells quantified 24 – 48 h after embedding. Compounds and BGJ398 were added in Dimethylsulfoxid (DMSO) and corresponding DMSO concentrations were used in control samples.

[2] = Cell viability (cytotoxicity, MTT) using HepG2; assay type: cell-based, human; conditions: human, HepG2 cells, 72 h, summary sheet, read-out: MTT (AC50) Conc at which 50% of maximum efficacy is reached
How it was run: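 Compounds were tested at 8 concentrations in triplicate on HepG2 cells plated 24 h beforehand, with 72 h exposure in 1% DMSO medium. MTT was loaded 1 h before the end, solubilized in DMSO and read at 570 nm. Minimum effective concentration is the lowest concentration exceeding the significance level, given dose-response or two consecutive points above it.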

[3] = In vivo bioavailability / PK after 1 mg/kg IV or 10 mg/kg PO; design: species or system Male ICR mice; conditions: for Vd: read-out: Vss; for C0: read-out: C0 after IV administration
Procedure: In vivo bioavailability studies were performed by Pharmacology Discovery Services Taiwan, Ltd., (New Taipei City, Taiwan). Male ICR mice weighing 20—30 g were provided by BioLasco Taiwan (under Charles River Laboratories Licensee). Animals were acclimated for 3 days prior to use and were confirmed with good health. All animals were maintained in a hygienic environment with controlled temperature (20—24 °C), humidity (30%—70%) and 12 h light/dark cycles. Free access to sterilized standard lab diet [MFG (Oriental Yeast Co., Ltd., Japan)] and autoclaved tap water. A pharmacokinetic (PK) study was performed in male ICR mice following intravenous (IV) and oral (PO) administration of compound 7 and E12 and IV administration of the test compound 3.14. The three test compounds (7, E12 and 3.14) were formulated in 1% dimethyl sulfoxide (DMSO)/10% Solutol® HS-15/ phosphate buffered saline (PBS) at 0.2 mg/mL and 1 mg/mL for IV and PO administration, respectively. The dosing volumes were 5 ml/kg for IV and 10 ml/kg for PO. The dose was 1 mg/kg for IV and 10 mg/kg for PO routes.

[4] = system: FRS2 (Y436) phosphorylation; assay: Immunoblotting, FRS2 phosphorylation; assay type: cell-based, human
Procedure: (§1) Cells were serum starved o.n. and 10 µM compound or 1 µM (BGJ398) were added 3 h before stimulation with 100 ng/ml bFGF for 15 min. Cells were lysed in RIPA buffer containing protease inhibitor cocktail and lysates resolved by SDS-PAGE. Membranes were probed with primary antibodies against phospho-FRS2, FRS2, phospho-ERK1/2, ERK1/2, pAKT, AKT and tubulin. Integrated density of immuno-reactive bands was quantified using Adobe Photoshop CS3. Integrated densities of phospho bands relative to non-phospho bands of same protein were calculated and plotted as fold-change relative to untreated control conditions. Compounds and BGJ398 were added in DMSO and corresponding DMSO concentrations were used in control samples.

ERK (pT202/Y204) = assay: Immunoblotting, ERK phosphorylation; assay type: cell-based, human
Procedure: as §1

[5] = male, ICR, mouse, plasma, iv, 1 mg/kg, IV, read-out: AUClast
[6] = male, ICR, mouse, plasma, iv, 1 mg/kg, mice, 1 mg/kg IV, read-out: AUClast after IV administration
[7] = male, ICR, mouse, plasma, 1 mg/kg, IV
[8] = male, ICR, mouse, mice, 1 mg/kg IV, plasma
[9] = male, ICR, mouse, plasma, 10 mg/kg, PO

| SMILES | collagen I invasion across cancer cell lines (result in words) [1] | AC50 at 72 h [2] [µM] | AUC Extr (%) ([3]; 1 mg/kg, IV) | AUC(0-t) [3, 5] [ng·h/mL] | AUC(0-t) [3, 6] [ng·h/mL] | AUC(0-inf) [3, 7] [ng·h/mL] | MRT [3, 7] [h] | clearance [3, 7] [mL/min/kg] | half-life [3, 7] [h] | Vd [3, 7] [L/kg] | C0 [3, 8] [ng/mL] | CL1/2 after IV administration ([3]; mice, 1 mg/kg IV) [h] | also measured |
| --- | --- | --- | --- | --- | --- | --- | --- | --- | --- | --- | --- | --- | --- |
| COc1ncc(C(C)NC2CC(C)(C)NC(C)(C)C2)cc1Cl (stereo not drawn) [Compound 3.3] | significant repression of collagen I invasion only in SKOV3 and M059K cells | > 100 |  |  |  |  |  |  |  |  |  |  |  |
| CC(C)C[C@@H](CO)NCc1cc(O)c2cc(F)ccc2n1 [Compound 3.14] |  |  | 0.5 | 410 | 413 | 413 | 0.52 | 40 | 1.55 | 1.3 | 2700 | 1.55 | basal or bFGF-induced Y436 phosphorylation of FRS2 (result in words) ([4]; DAOY or SW780 cells, 10 µM compound): not effective in SW780 cells; pERK (result in words) (ERK (pT202/Y204); SW780 and AGS cells, 10 µM): significantly reduced pERK |
| O=[N+]([O-])c1c(Cl)cc(O)c2c1C1C=CCC1C(c1ccc(Cl)cc1)N2 (stereo not drawn) [Compound 7] | inhibited collagen I invasion in both bFGF-sensitive and bFGF-insensitive cell lines | 7.02 | 1.2 | 393 | 398 | 398 | 0.29 | 42 | 1.14 | 0.7 | 2870 | 1.14 | AUC Extr (%) ([3]; 10 mg/kg, PO): 18.1%; AUC/D ([3]; 10 mg/kg, PO): 407 kg·ng·h/mL/mg; AUClast (H*ng/ml) ([3]; 10 mg/kg, PO): 3333 H*ng/ml; AUC(0-t) ([3]; male, ICR, mouse, plasma, po, 10 mg/kg, mice, 10 mg/kg PO, read-out: AUClast after PO administration): 3330 ng·h/mL; AUC(0-inf) [3, 9]: 4070 ng·h/mL; MRT [3, 9]: 4.71 h; Tmax [3, 9]: 0.5 h; bioavailability [3, 9]: 85%; half-life [3, 9]: 3.83 h; Cmax ([3]; male, ICR, mouse, mice, 10 mg/kg PO, plasma, read-out: Cmax (oral bioavailability) after PO administration): 1400 ng/mL; CL1/2 after PO administration ([3]; mice, 10 mg/kg PO): 3.83 h; basal and bFGF-induced phosphorylation of FRS2Y436 (result in words) ([4]; RT-112 cells): reduced basal and bFGF-induced phosphorylation; basal and bFGF-induced phosphorylation of ERK (result in words) (ERK (pT202/Y204); DAOY, SW780, M059K, SKOV3, AGS, DMS114 and RT-112 cells, 10 µM compound or 1 µM BGJ398): inhibited basal and bFGF-induced phosphorylation |
